Patent US7888042B2, “Methods for identifying insulin mimetics” (Ohio University, priority 2005, dated 2011)
Values joined by “and” are separate entries in the source; they are usually repeats but may differ in a detail not shown here. Identical values can stand only once.

Tests used:
3T3-L1 adipocytes = experiment: Glucose uptake assay in 3T3-L1 adipocytes; format: cell-based
Method: Chemical synthesis yields both the α- and β-anomers of PGG. (B) Glucose transport stimulatory activity (13, 14) of PGG was assessed by incubating adipocytes in 6-well plates with insulin or PGG for 15 min followed by the addition of [^3H]-2-deoxy-D-glucose for 10 min before quantifying uptake (13, n=3, mean±SD, Two way-ANOVA, * P<0.05; ** P<0.01). α-PGG (●); β-PGG (□); insulin (∘). (C) Glucose transport induced by insulin in the presence of α-PGG. One […] of insulin was added to adipocytes in the presence of increasing amounts of α-PGG. After induction, radioactive glucose was added, and the glucose taken up by the cells was counted.
Reagents, compound synthesis, and glucose uptake assay. Bovine insulin was purchased from Sigma. PGG, in an approximate 1:1 mixture of α- and β-PGG, was synthesized from glucose in the non-radioactive form as described (22). The identity of the compounds was confirmed by MS and NMR. The compounds were dissolved in double distilled water (ddH2O), filter sterilized, and stored as a 10 mM aqueous stock solution at −20° C. The stock solutions were diluted to final concentrations with sterile ddH2O. Glucose uptake assays in 3T3-L1 adipocytes induced by PGG were performed as described (13).

[1] = molecular target: T1, pure recombinant glycosylated IR (Homo sapiens, UniProt P06213); experiment: Surface plasmon resonance binding to IR; conditions: SPR, IR bound to NTA chip; read-out: apparent binding affinity (Kd) to IR
T1 construct: purchased R&D Systems, Inc
Method: (§1) (A) α-PGG binds to IR as measured by a SPR (28). Increasing concentrations of α-PGG was injected into the system to interact with the pure IR attached to the gold surface of the biosensor chip. The binding, represented in arbitrary response units, was automatically plotted against α-PGG concentrations to generate the binding curve. (B) Insulin binding to IR in the absence or presence of α-PGG. Increasing amounts of ^125I-labeled insulin were added to WGA-coated wells containing pre-bound IR isolated from CHO-IR cells in the absence of α-PGG or in the presence of 30 μM or 50 μM of α-PGG. After overnight incubation, removal of excessive ligands, and washing, the bound radioactive insulin was measured. (C) Insulin displacement by α-PGG. Fixed amounts of radioactive insulin (1 nM) were added to each of the WGA-coated wells pre-bound with IR. Increasing amounts of α-PGG were added to the wells to displace the ^125I-labeled insulin. […]
(§2) Insulin receptor binding studies. […] After sensograms of α-PGG-IR binding at different concentrations were recorded, the binding affinity was analyzed using BIAevaluation software. […] The bound ligand was detached (eluted) from the receptor with 2×200 μL 0.2M Glycine pH 2.8, and measured for its radioactivity using a Beckman Coulter LS 6400 Multi-Purpose Scintillation Counter. […] The receptor binding results were analyzed with the software GraphPad Prism.

[2] = molecular target: T2, IR isolated from CHO-IR cells (Homo sapiens, UniProt P06213); experiment: 125I-insulin saturation binding to IR in WGA-coated wells; conditions: 30 μM or 50 μM α-PGG
T2 construct: expressed in transfected cells; host or cells: CHO-IR cells (from Dr. Alan Saltiel's lab)
Method: as §1, §2

[3] = molecular target: T2, IR isolated from CHO-IR cells; experiment: 125I-insulin displacement assay in WGA-coated wells; format: binding; conditions: 1 nM 125I-labeled insulin; read-out: IC50 for displacement of IR-bound radioactive insulin
Method: as §1, §2

ob/ob mice = experiment: Glucose tolerance test in ob/ob mice, oral dose; format: in vivo
Method: Either 6-8 week old male db/db mice or 8-12 week old male ob/ob mice were treated with aqueous solutions of α-PGG by either oral delivery (˜10 μL, A & B) or ip injection (˜50 μL, C, & D). (n=8-10, mean±SD, one-way ANOVA). α-PGG (●); vehicle (∘). α-PGG (20 mg/kg) was orally delivered without glucose to fasting db/db mice (A *, P<0.02; **, P<0.01; ***, P<0.001) or with glucose (0.4 g/kg body weight) to fasting ob/ob mice (B, glucose tolerance test). α-PGG (20 mg/kg) was ip injected into ob/ob mice on day 0 and day 4 (C). A single ip injection (20 mg/kg) of α-PGG was administered to ob/ob mice (D). Glucose (A, B, C) or insulin (D) was determined from sera or plasma isolated from tail vein blood. Animal studies. Genetically diabetic db/db mice or obese ob/ob mice were purchased from Jackson Lab. Male mice of 2-3 months of age were used. Unless otherwise stated, 10 mice (N=10) were used per group. α-PGG was either orally administered or intraperitoneally (ip) injected in the form of an aqueous solution at 20 mg/kg body weight with a 1-cc sterile plastic syringe. At different times after the α-PGG administration, blood or plasma was collected from the tail vein for measurement of glucose and insulin concentrations using commercial kits. Vehicle (aqueous solution) treated mice were used as controls and were statistically compared with the α-PGG treated mice. All animal studies were conducted in accord with the Ohio University guidelines for the use and care of laboratory animals.

T1 sequence (P06213 28-746 isoform P06213-2 limits assumed): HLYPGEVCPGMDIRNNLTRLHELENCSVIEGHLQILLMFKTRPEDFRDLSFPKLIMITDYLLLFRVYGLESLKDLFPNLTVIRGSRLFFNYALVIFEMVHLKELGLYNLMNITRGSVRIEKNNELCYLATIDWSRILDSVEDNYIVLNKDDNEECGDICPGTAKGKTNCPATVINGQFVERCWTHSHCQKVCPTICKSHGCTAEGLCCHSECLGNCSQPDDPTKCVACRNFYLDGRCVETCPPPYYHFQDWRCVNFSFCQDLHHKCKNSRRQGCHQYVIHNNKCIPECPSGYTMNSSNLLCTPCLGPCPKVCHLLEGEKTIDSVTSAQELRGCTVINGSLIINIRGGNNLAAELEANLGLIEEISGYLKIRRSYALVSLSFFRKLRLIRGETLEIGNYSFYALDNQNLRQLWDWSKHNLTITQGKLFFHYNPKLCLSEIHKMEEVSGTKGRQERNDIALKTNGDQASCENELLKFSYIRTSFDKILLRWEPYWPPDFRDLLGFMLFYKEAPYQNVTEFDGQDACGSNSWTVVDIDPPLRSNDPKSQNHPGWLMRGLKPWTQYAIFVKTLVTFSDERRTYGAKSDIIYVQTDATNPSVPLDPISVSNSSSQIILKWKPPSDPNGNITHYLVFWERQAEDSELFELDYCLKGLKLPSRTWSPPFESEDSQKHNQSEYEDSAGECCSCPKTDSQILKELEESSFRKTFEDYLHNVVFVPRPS
T1 sequence (P06213 763-956 limits assumed): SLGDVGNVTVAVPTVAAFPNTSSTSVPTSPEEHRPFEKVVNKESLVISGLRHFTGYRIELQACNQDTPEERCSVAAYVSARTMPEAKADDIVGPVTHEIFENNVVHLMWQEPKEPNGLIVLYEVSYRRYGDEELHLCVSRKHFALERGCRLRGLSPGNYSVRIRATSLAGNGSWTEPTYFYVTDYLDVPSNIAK
T2 sequence (P06213 28-758 limits assumed): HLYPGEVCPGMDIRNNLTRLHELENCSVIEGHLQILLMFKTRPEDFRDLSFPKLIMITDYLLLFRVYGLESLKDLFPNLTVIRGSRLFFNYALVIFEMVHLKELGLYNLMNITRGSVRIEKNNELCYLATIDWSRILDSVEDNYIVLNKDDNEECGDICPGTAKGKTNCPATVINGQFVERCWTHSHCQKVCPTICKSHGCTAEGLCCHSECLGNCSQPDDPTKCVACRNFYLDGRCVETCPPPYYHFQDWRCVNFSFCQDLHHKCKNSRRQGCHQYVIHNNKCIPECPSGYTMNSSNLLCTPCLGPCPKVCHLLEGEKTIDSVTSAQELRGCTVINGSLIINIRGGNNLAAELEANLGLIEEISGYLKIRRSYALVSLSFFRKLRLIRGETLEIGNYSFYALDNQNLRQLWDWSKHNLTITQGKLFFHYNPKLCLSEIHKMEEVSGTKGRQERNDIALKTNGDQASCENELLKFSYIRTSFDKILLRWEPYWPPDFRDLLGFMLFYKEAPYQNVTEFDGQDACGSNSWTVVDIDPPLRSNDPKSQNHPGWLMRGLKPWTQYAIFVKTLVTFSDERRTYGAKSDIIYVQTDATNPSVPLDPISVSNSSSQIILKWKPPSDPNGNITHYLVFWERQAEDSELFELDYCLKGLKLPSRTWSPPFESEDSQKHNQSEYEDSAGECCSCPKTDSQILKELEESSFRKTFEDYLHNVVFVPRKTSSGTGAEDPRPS
T2 sequence (P06213 763-1382 partner limits assumed): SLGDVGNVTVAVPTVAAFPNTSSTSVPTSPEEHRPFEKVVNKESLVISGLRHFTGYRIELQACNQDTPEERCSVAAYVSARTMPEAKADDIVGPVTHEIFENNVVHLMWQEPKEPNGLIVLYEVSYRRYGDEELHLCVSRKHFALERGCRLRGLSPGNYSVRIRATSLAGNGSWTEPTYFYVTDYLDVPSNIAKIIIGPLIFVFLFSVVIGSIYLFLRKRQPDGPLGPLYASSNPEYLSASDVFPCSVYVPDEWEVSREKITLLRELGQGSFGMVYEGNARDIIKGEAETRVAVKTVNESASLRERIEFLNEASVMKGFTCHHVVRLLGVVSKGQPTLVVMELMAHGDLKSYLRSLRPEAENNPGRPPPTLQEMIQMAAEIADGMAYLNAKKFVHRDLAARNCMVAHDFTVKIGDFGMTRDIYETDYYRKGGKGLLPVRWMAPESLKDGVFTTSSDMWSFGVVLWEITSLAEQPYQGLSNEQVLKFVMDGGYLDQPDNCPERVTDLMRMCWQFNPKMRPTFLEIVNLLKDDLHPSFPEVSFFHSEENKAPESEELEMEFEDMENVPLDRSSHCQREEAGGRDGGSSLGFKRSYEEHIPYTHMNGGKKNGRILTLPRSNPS

O=C(OC[C@H]1O[C@H](OC(=O)c2cc(O)c(O)c(O)c2)[C@H](OC(=O)c2cc(O)c(O)c(O)c2)[C@@H](OC(=O)c2cc(O)c(O)c(O)c2)[C@@H]1OC(=O)c1cc(O)c(O)c(O)c1)c1cc(O)c(O)c(O)c1 [α-PGG, alpha 1,2,3,4,6-penta-O-galloyl-D-Glucopyranose]
induction of glucose transport (3T3-L1 adipocytes; 3T3-L1 adipocytes, [3H]-2-deoxy-D-glucose uptake, 15 min incubation): induced glucose transport in adipocytes in a dose-dependent manner
glucose transport activity, more active than β-PGG (3T3-L1 adipocytes; 15-30 μM concentration range, P<0.05 at 15 μM, P<0.01 at 30 μM): 10-20%
EC50 (3T3-L1 adipocytes; Mus musculus, 3T3-L1, estimated, printed 13 μM±2 μM, read-out: EC50 for glucose transport activity): 13 µM
glucose transport induced by insulin on addition of α-PGG (3T3-L1 adipocytes; insulin plus increasing amounts of α-PGG): reduced the glucose transport activity induced by insulin towards that of α-PGG
Kd [1]: 43 µM and ~43 µM
maximal binding (Bmax) for insulin [2]: reduced in a dose-dependent manner
IC50 [3]: 10 ± 1 µM
duration of blood glucose difference (ob/ob mice; oral 20 mg/kg): at least 5 h
largest difference in glucose levels vs control group (ob/ob mice; oral 20 mg/kg): about 20%
glucose tolerance (ob/ob mice; single oral dose 20 mg/kg with glucose 0.4 g/kg): significantly improved
